Measurements from article PMC6520522, “In vitro and in vivo Metabolism of a Potent Inhibitor of Soluble Epoxide Hydrolase, 1-(1-Propionylpiperidin-4-yl)-3-(4-(trifluoromethoxy)phenyl)urea” (Frontiers in Pharmacology, 2019).
Several values for one entry are separate records, joined by “and”; a condition that tells them apart may be missing. Equal values may be shown once.

How the values were obtained:
recombinant human sEH = biological target: T1, recombinant human sEH (Homo sapiens, UniProt P34913); assay: sEH inhibition potency, CMNPC fluorescent assay; assay type: biochemical; conditions: for IC50: CMNPC fluorescent assay, recombinant human sEH 1 nM, 30°C, average of three replicates, read-out: HsEH IC50
T1 sequence (P34913 1-555): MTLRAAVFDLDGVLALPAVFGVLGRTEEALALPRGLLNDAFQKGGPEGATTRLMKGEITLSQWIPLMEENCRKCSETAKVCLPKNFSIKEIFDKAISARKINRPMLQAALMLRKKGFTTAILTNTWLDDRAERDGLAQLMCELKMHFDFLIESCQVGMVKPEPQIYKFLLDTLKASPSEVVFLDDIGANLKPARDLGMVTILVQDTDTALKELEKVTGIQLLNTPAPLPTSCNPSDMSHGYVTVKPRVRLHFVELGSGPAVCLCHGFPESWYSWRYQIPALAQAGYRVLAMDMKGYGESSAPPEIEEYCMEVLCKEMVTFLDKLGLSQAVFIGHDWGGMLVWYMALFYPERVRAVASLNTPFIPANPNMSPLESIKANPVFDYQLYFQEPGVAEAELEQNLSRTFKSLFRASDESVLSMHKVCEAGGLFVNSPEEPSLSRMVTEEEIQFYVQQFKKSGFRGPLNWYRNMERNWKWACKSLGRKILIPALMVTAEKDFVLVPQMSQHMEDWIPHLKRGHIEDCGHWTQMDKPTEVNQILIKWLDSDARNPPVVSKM
Description: Briefly, recombinant human sEH [1 nM in sodium phosphate buffer (0.1 M, pH = 7.4, 0.1 mg/mL BSA)] was incubated with each analyte (0.1 < [I]final < 10,000 nM) at 30°C for 5 min. Then, the reaction was started with the addition to CMNPC ([S]final = 5 μM). The reaction was monitored kinetically for 10 min at 30°C. The formation of the fluorescent product 6-methoxynaphthaldehyde (λexcitation = 330 nm, λemission = 465 nm, 30°C) was measured every 30 s. IC50 values were determined by regression of the remaining activity in function of the inhibitor concentrations. Assays were run in triplicate and IC50 values are the averages of three replicates.

[1] = Blood pharmacokinetics of TPPU and its metabolites after single oral dose in rats; assay type: in vivo; conditions: for half-life: rat, po, 10 mg/kg, n = 4, read-out: T1/2 (half-life) (converted); for share of the total TPPU-related exposure in blood: single oral dose of TPPU, over 72 h
Description: (§1) Healthy male rats (Sprague Dawley, n = 4) were housed in temperature-controlled housing with ad libitum standard chow and drinking water. Each rat received TPPU (dissolved in 0.5 mL PEG400) at a dose of 10 mg/kg by oral gavage in order to generate significant amounts of metabolites while corresponding to previous efficacious concentration doses. Both blood and urine samples were collected. Blood samples (10 μL) at time points of 0 (before dosing), 0.25, 0.5, 1, 2, 4, 8, 12, 24, 48, and 72 h post dose were collected from the tail vein. Collected blood samples were transferred to Eppendorf tubes containing 90 μL of EDTA solution (0.1% EDTA and 0.1% acetic acid) and were immediately shaken to avoid blood coagulation. The urine and feces samples were passively collected at the time points of 8, 12, 24, 48, and 72 h post dose. TAPU (10 μL) of 1 μM in methanol was added in each blood and urine sample as an internal standard solution. The blood sample extraction was performed with 200 μL ethyl acetate by liquid-liquid extraction. The representative urine samples were subjected to protein precipitation prior to analysis of TPPU and Phase I metabolites. Briefly, urine (10 μL) was treated with 50 μL acetonitrile. After vortex mixing and centrifugation, the supernatant was collected. The feces samples (50–100 mg) were extracted using 600 μL extraction solution (MeOH: EA = 1:1). The mixtures were kept at −20°C overnight to give efficient extraction of TPPU and its metabolites. On day 2, after vortex mixing and centrifugation, the supernatant was collected. The remaining residue was extracted an additional time with 300 μL extraction solution, and the supernatant was combined after centrifugation. The collected supernatants were dried using a speed vacuum concentrator and reconstituted in 50 μL of 100 nM CUDA solution in methanol. In addition, urine (10 μL) was diluted with water (50 μL) and then subjected to analysis of glucuronide or sulfate conjugates.
(§2) LC-MS/MS analysis was conducted on an Agilent SL 1200 series LC system (Agilent, Palo Alto, CA) connected to a 4,000 Qtrap mass spectrometer (Applied Biosystems Instrument Corporation, Foster City, CA) with Turbo V ion source. Liquid chromatography was performed on a Kinetex® C18 column (100 × 2.1 mm, 1.7 μm). Three μL solution was injected onto the column held at 45°C for analysis. Mobile phase A and B were water with 0.1% acetic acid and acetonitrile with 0.1% acetic acid, respectively. The LC flow rate was 300 μL/min.
(§3) The mass spectrometer was operated in both negative and positive modes. Three different scan types were employed to perform mass spectrometry analysis, including product ion scan, precursor ion scan (optimized parameters in Table S4) and MRM scan (optimized parameters in Table S5).

[2] = Feces levels of TPPU and metabolites after single oral dose in rats; assay type: in vivo; conditions: rat, single oral dose 10 mg/kg TPPU; for concentration at 8 h: 8h post dose; for concentration at 8 h / concentration at 12 h / concentration at 24 h / concentration at 48 h / concentration at 72 h: n = 3; for concentration at 12 h: 12h post dose; for concentration at 24 h: 24h post dose; for concentration at 48 h: 48h post dose; for concentration at 72 h: 72h post dose
[3] = In vitro metabolism of TPPU in liver S9 fractions; assay type: in vitro ADME, human, monkey, dog, rat, mouse; conditions: for formation of metabolite in liver S9 fractions: with NADPH regeneration system, rat, mouse, dog, monkey, human, 2 h; for formation of metabolite in liver S9 fractions in the absence of a NADPH generation system: without NADPH, liver S9 fractions (Figure S1: human)
Description: The in vitro study of TPPU metabolism was conducted following previous methods as described (Watanabe and Hammock, [2001]). Briefly, 1 μL of TPPU (1 mM in DMSO; [TPPU]final = 10 μM) was mixed with 94 μL of diluted liver S9 fractions (final, 0.05 mg protein/mL) from human, monkey, dog, rat, and mouse and incubations were conducted in a 10 mL glass vial. After 5 min preincubation at 37°C, the reaction was initiated by adding 5 μL of NADPH regeneration solution. The NADPH regeneration solution was prepared by mixing 50 μL of NADP^+ (100 mM), 50 μL of G6P (500 mM), 50 μL of G6PDH (100 Unit/mL), and 100 μL of sodium phosphate buffer. Incubation without NADPH regeneration solution was used as control. Reactions were kept for 2 h and terminated by addition of 100 μL of ice-cold methanol containing CUDA (200 nM) as an internal standard. The mixture was followed by vigorous mixing for 2 min and centrifuging at 10,000^*g for 10 min. Each supernatant was transferred to an HPLC vial and kept under 4°C until LC-MS analysis.
as §2

[4] = Urine levels of TPPU and metabolites after single oral dose in rats; assay type: in vivo; conditions: male, Sprague Dawley, rat, single oral dose 10 mg/kg TPPU, n = 3; for concentration at 8 h: 8h post dose; for concentration at 12 h: 12h post dose; for concentration at 24 h: 24h post dose; for concentration at 48 h: 48h post dose; for concentration at 72 h: 72h post dose
[5] = Metabolite identification/screening by LC-MS/MS (precursor ion scans, LC-MRM-MS) in rats; assay type: in vivo, rat; conditions: for detection as TPPU metabolite: LC-MS/MS, in vivo in rats (blood, urine), Table 1 footnote: in vitro and in vivo; for share of TPPU metabolism, if formed: not detected by the LC-MRM-MS method; for concentration in rat urine, if formed (below method detection limit): rat urine after oral TPPU, LC-MRM-MS, no peak found, LOD
Description: as §1, with “[…].” for “Each rat received TPPU (dissolved in 0.5 mL PEG400) at a dose of 10 mg/kg by oral gavage in order to generate significant amounts of metabolites while corresponding to previous efficacious concentration doses.”
as §2, §3
. The other minor fragment ion at m/z 85 appeared at higher-energy collision induced dissociation (CID, 38 eV) and is derived from the C-O bond cleavage on the trifluoromethoxyphenyl group (Figure 1B). To support the structural identification of TPPU metabolites, six putative metabolites, M1–M4, α-keto amide metabolite and 4-(trifluoromethoxy)aniline were synthesized and analyzed by LC-MS/MS (Figure 2 and Table 2). In the negative ion mode, the fragment ion at m/z 176 was generated by all five synthetic putative metabolites (M1–M4 and α-keto amide metabolite). Apparently, this fragment ion (m/z 176) is a characteristic fragment that is generated by metabolites containing the 4-(trifluoromethoxy)aniline moiety. Therefore, precursor ion scan for m/z 176 can be used to screen for this kind of TPPU metabolite. The method limit of detection (LOD) is 2 ng/mL. In addition, the fragment ion at m/z 85 (from the trifluoro-methoxy) was also generated by these synthetic standards. […]. Therefore, precursor ion scan for m/z 85 can unveil a large number of possible TPPU metabolites, such as the ones-formed from amide hydrolysis and oxidation at aliphatic groups, aromatic ring, and nitrogen center. […]. […]

[6] = male, Sprague Dawley, whole blood, oral gavage 10 mg/kg

Molecule: O=C(O)CC(=O)N1CCC(NC(=O)Nc2ccc(OC(F)(F)F)cc2)CC1 [Compound M4, 3-oxo-3-(4-(3-(4-(trifluoromethoxy)phenyl)ureido)piperidin-1-yl)propanoic acid]
- IC50 (recombinant human sEH): 158 ± 10 nM
- half-life [1, 6]: 17 ± 4.7 h
- Cmax ([1]; male, Sprague Dawley, whole blood, rat blood, oral gavage 10 mg/kg, n = 4, read-out: Cmax (maximum blood concentration)): 53 ± 28 nM
- share of the total TPPU-related exposure in blood ([1]; rat blood): < 0.4%
- concentration at 8 h ([2]; male, Sprague Dawley, feces): 3 ng/mL
- concentration at 12 h ([2]; male, Sprague Dawley, feces): 1.2 ng/mL
- concentration at 24 h ([2]; male, Sprague Dawley, feces): 2.2 ng/mL
- concentration at 48 h ([2]; male, Sprague Dawley, feces): 6.4 ng/mL
- concentration at 72 h ([2]; male, Sprague Dawley, feces): 2.1 ng/mL
- Cmax ([2]; male, Sprague Dawley, feces): 22000 ng/mL
- time of Cmax in feces [2]: 24 h
- formation of metabolite in liver S9 fractions [3]: not detected
- concentration at 8 h [4]: 1 ng/mL
- concentration at 12 h [4]: 1.1 ng/mL
- concentration at 24 h [4]: 2.4 ng/mL
- concentration at 48 h [4]: 1.2 ng/mL
- concentration at 72 h [4]: 1.7 ng/mL

Molecule: O=C(Nc1ccc(OC(F)(F)F)cc1)NC1CCNCC1 [Compound M3, 1-(piperidin-4-yl)-3-(4-(trifluoromethoxy)phenyl)urea]
- IC50 (recombinant human sEH): 83.5 nM and 83 nM
- fold lower potency than TPPU toward human sEH (recombinant human sEH; ratio of IC50 values, versus TPPU): 80 fold
- half-life [1, 6]: 14 ± 2.7 h
- share of the total TPPU-related exposure in blood ([1]; rat blood): < 0.4%
- concentration at 8 h ([2]; male, Sprague Dawley, feces): 3.6 ng/mL
- concentration at 12 h ([2]; male, Sprague Dawley, feces): 8.3 ng/mL
- concentration at 24 h ([2]; male, Sprague Dawley, feces): 1.1 ng/mL
- concentration at 48 h ([2]; male, Sprague Dawley, feces): 3.4 ng/mL
- concentration at 72 h ([2]; male, Sprague Dawley, feces): 1.7 ng/mL
- formation of metabolite in liver S9 fractions [3]: found in all species tested
- formation of metabolite in liver S9 fractions in the absence of a NADPH generation system [3]: could still be produced
- concentration at 8 h [4]: 2.5 ng/mL
- concentration at 12 h [4]: 2.9 ng/mL
- concentration at 24 h [4]: 1 ng/mL
- concentration at 48 h [4]: 1.5 ng/mL
- concentration at 72 h [4]: 44 ± 21 ng/mL

Molecule: O=C(Nc1ccc(OC(F)(F)F)cc1)NC1CCN(C(=O)CCO)CC1 [Compound M2, 1-(1-(3-hydroxypropanoyl)piperidin-4-yl)-3-(4-(trifluoromethoxy)phenyl)urea]
- IC50 (recombinant human sEH): 16 ± 2 nM
- half-life [1, 6]: 9.7 ± 0.8 h
- share of the total TPPU-related exposure in blood ([1]; rat blood): < 0.4%
- concentration at 8 h ([2]; male, Sprague Dawley, feces): 4.3 ng/mL
- concentration at 12 h ([2]; male, Sprague Dawley, feces): 6.8 ng/mL
- concentration at 24 h ([2]; male, Sprague Dawley, feces): 6.7 ng/mL
- concentration at 48 h ([2]; male, Sprague Dawley, feces): 1.9 ng/mL
- concentration at 72 h ([2]; male, Sprague Dawley, feces): 43 ± 31 ng/mL
- formation of metabolite in liver S9 fractions [3]: found in all species tested
- formation of metabolite in liver S9 fractions in the absence of a NADPH generation system [3]: failed to be detected
- concentration at 8 h [4]: 2.7 ng/mL
- concentration at 12 h [4]: 3.2 ng/mL
- concentration at 24 h [4]: 7.6 ng/mL
- concentration at 48 h [4]: 3 ng/mL
- concentration at 72 h [4]: 61 ± 60 ng/mL

Molecule: 4-(trifluoromethoxy)aniline
- detection as TPPU metabolite [5]: not detectable
- share of TPPU metabolism, if formed [5]: < 0.01%
- concentration in rat urine, if formed (below method detection limit) [5]: < 0.1 ng/mL

Molecule: CC(=O)C(=O)N1CCC(NC(=O)Nc2ccc(OC(F)(F)F)cc2)CC1 [α-Keto amide, 1-(1-(2-oxopropanoyl)piperidin-4-yl)-3-(4-(trifluoromethoxy)phenyl)urea]
- detection as TPPU metabolite [5]: not detectable
- share of TPPU metabolism, if formed [5]: < 0.01%
- concentration in rat urine, if formed (below method detection limit) [5]: < 0.5 ng/mL
